Consider one compound from patent US20230026869A1, “CRYSTAL FORM OF NUCLEOPROTEIN INHIBITOR AND USE THEREOF” (CHIA TAI TIANQING PHARMACEUTICAL GROUP CO., LTD., priority 2019, published 2023).

As usually defined, the IC50 is the concentration that inhibits the measured activity by half. Higher therefore signals weaker potency in that assay. As a reminder, the microsomal CLint is the capacity of the preparation to metabolise the compound, expressed as a volume cleared per time. Lower therefore signals greater metabolic stability. By CLint scaled is commonly meant the capacity of the preparation to metabolise the compound, expressed as a volume cleared per time. Lower therefore signals slow turnover. As usually defined, the Tmax is the time from dosing to the highest level. The bioavailability is the share of a dose that reaches the circulation, judged against a reference dose that is usually intravenous.

The target of one series is T1, CYP2D6 (Homo sapiens, UniProt P10635).
T1 construct: from tissue; host or cells: human liver microsomes
Description: Inhibition of human liver microsomal cytochrome P450 isoenzyme CYP2D6. It is filed as in vitro ADME. The note with it: human liver microsomes. On the procedure: Objective: The inhibitory effect of the test compound on the activity of human liver microsomal cytochrome P450 isoenzymes (CYP1A2, CYP2C9, CYP2C19, CYP2D6 and CYP3A4) was determined. […]
Background: Microsomes from liver hold many membrane-bound enzymes, among them those of drug oxidation.

The nature of series [1]: Metabolic stability in CD-1 mice liver microsomes. Format: in vitro ADME. As for the experimental part:
(§1) Objective: The metabolic stability of the test compound in CD-1 mice and human liver microsomes was determined. […]

The nature of series [2]: Metabolic stability in human liver microsomes. Format: in vitro ADME. On the procedure: as §1
Series [3] can be described thus: Pharmacokinetic study in Balb/c mice by oral administration and intravenous injection. As to conditions: mouse, Balb/c female mice, plasma. It is filed as in vivo. As for the experimental part:
Pharmacokinetic Study of the Test Compound in Balb/c Mice by Oral Administration and Intravenous Injection: The test compound was mixed with a solution containing dimethyl sulfoxide (101), polyethylene glycol 400 (600%) and water (300), and the mixture was vortexed and sonicated to prepare a 0.2 mg/mL clear solution, which was filtered through a millipore filter for later use. Balb/c female mice aged 7 to 10 weeks were intravenously injected with the candidate compound solution at a dose of 1 mg/kg. The test compound was mixed with an aqueous solution containing 10% polyoxyethylene stearate, and the mixture was vortexed and sonicated to prepare a 0.3 mg/mL clear solution for later use. Balb/c female mice aged 7 to 10 weeks were orally administered with the candidate compound solution at a dose of 3 mg/kg. Whole-blood was collected and plasma was prepared. Drug concentration was analyzed by LC-MS/MS and pharmacokinetic parameters were calculated with Phoenix WinNonlin software.

T1 sequence (P10635 whole entry): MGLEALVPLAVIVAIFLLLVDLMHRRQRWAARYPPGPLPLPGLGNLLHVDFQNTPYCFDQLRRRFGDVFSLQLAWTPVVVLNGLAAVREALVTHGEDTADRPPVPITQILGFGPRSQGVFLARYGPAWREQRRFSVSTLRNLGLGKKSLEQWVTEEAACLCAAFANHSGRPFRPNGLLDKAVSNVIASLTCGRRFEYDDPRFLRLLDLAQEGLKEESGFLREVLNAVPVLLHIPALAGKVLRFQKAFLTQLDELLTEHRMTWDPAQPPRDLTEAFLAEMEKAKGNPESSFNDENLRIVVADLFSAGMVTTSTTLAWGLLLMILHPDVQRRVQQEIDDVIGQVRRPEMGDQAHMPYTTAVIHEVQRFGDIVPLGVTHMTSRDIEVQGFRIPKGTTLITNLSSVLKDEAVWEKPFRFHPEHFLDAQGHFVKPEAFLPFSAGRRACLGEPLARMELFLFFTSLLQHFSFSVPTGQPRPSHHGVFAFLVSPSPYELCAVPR

With `CC1(NC(=O)C(=O)c2c(Cl)c(C(=O)Nc3cc(F)c(F)c(F)c3)c3n2CCC3)CCC(CC(=O)O)CC1` (stereo not drawn) [Compound of formula (I)], the 50% inhibitory concentration (IC50) against CYP2D6 is > 50 µM. Besides, the microsomal CLint at 1 μM was < 9.6 µL/min/mg in series [1] (CD-1, mouse, microsomes) and < 9.6 µL/min/mg in series [2] (human, microsomes). The CLint scaled at 1 μM in series [1] (mouse, CD-1 mice liver microsomes) was < 38 mL/min/kg; in series [2] (human liver microsomes) it was < 8.6 mL/min/kg. The half-life at 1 μM in series [1] (mouse, CD-1 mice liver microsomes, 1 μM compound, 0.5 mg/mL) is > 2.42 h; in series [2] (Human liver microsomes, 1 μM compound, 0.5 mg/mL), > 2.42 h. For the same compound, in series [3] (3 mg/kg, PO 3 mpk, read-out: Area under the plasma concentration-time curve AUC), the AUC turned out to be 2.27 µM·h. The Cmax in series [3] (3 mg/kg, PO 3 mpk, read-out: Peak concentration Cmax) was found to be 1480 nM. In addition, the Tmax in series [3] (3 mg/kg, PO 3 mpk, read-out: Peak time Tmax) was determined as 0.5 h. In series [3] (3 mg/kg, PO 3 mpk vs IV 1 mg/kg, read-out: Bioavailability (F %)), the bioavailability came to 51%. Also, the Vd in series [3] (IV 1 mg/kg, read-out: Apparent volume of distribution (Vdss)) was found to be 3.1 L/kg. The AUC(0-t) in series [3] (IV 1 mg/kg, read-out: Area under the plasma concentration-time curve AUC0-24 h) amounted to 1.49 µM·h. Moreover, the clearance in series [3] (IV 1 mg/kg, read-out: Clearance (CL)) is 20 mL/min/kg. Also, in series [3] (IV 1 mg/kg, read-out: Half-life T1/2 (converted)), the half-life was 1.95 h.
